Measured values: patent US20170066779A1, “SOLID FORMS OF A FLAVIVIRIDAE VIRUS INHIBITOR COMPOUND AND SALTS THEREOF” (IDENIX Pharmaceuticals LLC, priority 2014, published 2017)

Tests used:
[1] = Solid-state storage stability at elevated temperature and humidity (XRPD); assay type: physicochemical
Method: One hundred milligrams of the amorphous form of the compound of Formula I was solubilized into 5 volumes of ethyl acetate or acetone under constant stirring at respectively 70° C. or 50° C. (experiment performed in duplicate). […] Systems were then allowed to equilibrate at initial temperature for 1 hour (crashing out reported in all cases). Some samples were then filtered at respectively 70° C. or 50° C. Other samples were cooled to 0° C. at 0.1° C./min. Suspensions were observed after 1 hour slurrying at 0° C. Ten volumes of solvent were added to each sample and the systems were allowed to equilibrate at 0° C. for 1 hour. One aliquot of each condition was filtered under reduced pressure, dried for 16 hours at 70° C. and 3 mbar and characterized by XRPD, ^1H-NMR and HPLC (Table 6).
Ca. 0.5 g of the compound of Formula I was weighed in a 10 mL vial, 15 vol. of IPAc were added. The suspension was heated to 50° C., 2.5 eq of acid added (from a stock solution 1 M in THF) and then cooled to 5° C. at 0.1° C. min^−1. Suspension was filtered with vacuum and allowed to dry under these conditions for 4 h. Samples were analyzed by XRPD to check the conversion and then they were dried under vacuum at 30° C. for 20 h. […] The suspension was heated to 50° C. and additional 0.5 eq of acid added from a stock solution 1 M in THF. The suspension was then cooled to 5° C. at 0.1° C. min^−1. The solid was filtered with vacuum and allowed to dry under these conditions for 4 h. The solid was analyzed by XRPD to check the conversion and then it was dried under vacuum at 30° C. for 20 h.

[2] = Gravimetric vapor sorption (GVS); assay type: physicochemical; conditions: for XRPD post GVS / XRPD after GVS: solid form after the sorption cycle
Method: Sorption isotherms were obtained using a SMS DVS Intrinsic moisture sorption analyzer, controlled by DVS Intrinsic Control software v1.0.0.30. The sample temperature was maintained at 25° C. by the instrument controls. The humidity was controlled by mixing streams of dry and wet nitrogen, with a total flow rate of 200 mL/min. The relative humidity (RH) was measured by a calibrated Rotronic probe (dynamic range of 1.0-100% RH), located near the sample. The weight change, (mass relaxation) of the sample as a function of % RH was constantly monitored by the microbalance (accuracy ±0.005 mg). Typically 5-20 mg of sample was placed in a tared mesh stainless steel basket under ambient conditions. The sample was loaded and unloaded at 40% RH and 25° C. (typical room conditions). A moisture sorption isotherm was performed as outlined below (2 scans giving 1 complete cycle). The standard isotherm was performed at 25° C. at 10% RH intervals over a 0-90% RH range. Data analysis was undertaken in Microsoft Excel using DVS Analysis Suite v6.0.0.7.

[3] = Absolute oral bioavailability in rats; conditions: rat, in vivo, dosed as a solution in 0.5% TPGS/37.5% PEG200/60% PBS, 10 mg/kg PO and 2 mg/kg IV
Method: The desired route of administration for the compound of Formula I is oral. The absolute oral bioavailability in rats was determined to be approximately 4-8% when dosed as a solution in 0.5% TPGS/37.5% PEG200/60% PBS. The doses were 10 mg/kg PO and 2 mg/kg IV.

P-gp = target: T1, P-gp (Homo sapiens, UniProt P08183); assay: P-gp substrate assessment (BA/AB transport ratio, with or without cyclosporine A); assay type: in vitro ADME
T1 construct: endogenous in cells; host or cells: Caco-2

Caco-2 cell model = assay: Permeability in the 3-day Caco-2 cell model; assay type: in vitro ADME
[4] = Half-life in human hepatocytes; assay type: in vitro ADME
Method: Furthermore, the half-life in human hepatocytes was in the mid/long range of >8 hours for the compound of Formula I. Consequently, rapid hepatic clearance is unlikely to contribute to low oral bioavailability.

[5] = Thermodynamic aqueous solubility; assay type: physicochemical; conditions: for thermodynamic aqueous solubility, rank order: solubility decreases in the printed order
Method: The suspension was equilibrated at 25° C. for 24 hours then the pH was measured. The suspension was then filtered through a glass fibre C filter. The filtrate was then diluted by an appropriate factor, e.g. 101. Quantitation was by HPLC with reference to a standard solution of approximately 0.25 mg/mL in DMSO. Different volumes of the standard, diluted and undiluted sample solutions were injected.

T1 sequence (P08183 whole entry): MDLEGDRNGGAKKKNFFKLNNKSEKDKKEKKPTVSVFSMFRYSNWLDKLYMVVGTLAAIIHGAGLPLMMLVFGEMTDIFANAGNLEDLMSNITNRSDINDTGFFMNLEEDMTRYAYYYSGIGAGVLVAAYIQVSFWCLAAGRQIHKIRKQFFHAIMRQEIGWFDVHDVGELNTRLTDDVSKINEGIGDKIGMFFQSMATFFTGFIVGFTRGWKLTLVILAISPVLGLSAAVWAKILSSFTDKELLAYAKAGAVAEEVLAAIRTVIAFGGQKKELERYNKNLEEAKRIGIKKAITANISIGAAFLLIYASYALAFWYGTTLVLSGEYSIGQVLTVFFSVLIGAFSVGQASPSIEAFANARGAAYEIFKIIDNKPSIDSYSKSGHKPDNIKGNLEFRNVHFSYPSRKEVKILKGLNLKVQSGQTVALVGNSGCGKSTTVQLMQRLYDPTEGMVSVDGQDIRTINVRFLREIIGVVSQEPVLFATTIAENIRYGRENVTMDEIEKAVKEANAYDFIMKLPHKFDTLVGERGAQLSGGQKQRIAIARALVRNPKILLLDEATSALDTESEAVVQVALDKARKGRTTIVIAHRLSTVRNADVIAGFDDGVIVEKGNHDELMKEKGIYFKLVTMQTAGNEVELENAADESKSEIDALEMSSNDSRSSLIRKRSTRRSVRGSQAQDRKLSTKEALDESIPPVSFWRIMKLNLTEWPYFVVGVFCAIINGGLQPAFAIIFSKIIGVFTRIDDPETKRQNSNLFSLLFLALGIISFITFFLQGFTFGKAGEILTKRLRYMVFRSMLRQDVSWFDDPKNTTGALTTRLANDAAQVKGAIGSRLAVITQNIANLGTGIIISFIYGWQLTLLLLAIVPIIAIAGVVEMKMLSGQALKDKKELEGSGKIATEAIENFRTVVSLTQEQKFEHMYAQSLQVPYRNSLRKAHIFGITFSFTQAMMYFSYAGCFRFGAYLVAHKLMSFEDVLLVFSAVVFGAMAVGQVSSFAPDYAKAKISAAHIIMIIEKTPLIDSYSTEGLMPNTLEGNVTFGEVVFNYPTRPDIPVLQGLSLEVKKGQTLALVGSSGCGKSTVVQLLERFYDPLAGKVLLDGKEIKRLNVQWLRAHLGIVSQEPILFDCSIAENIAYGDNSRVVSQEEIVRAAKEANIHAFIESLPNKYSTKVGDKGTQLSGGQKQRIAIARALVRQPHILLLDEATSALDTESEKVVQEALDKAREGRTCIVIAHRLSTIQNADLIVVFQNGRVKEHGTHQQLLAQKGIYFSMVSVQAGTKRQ

COC(=O)N[C@H](C(=O)N1CCC[C@H]1c1nc2ccc(-c3csc4c(-c5ccc(-c6cnc([C@@H]7CCCN7C(=O)[C@H](NC(=O)OC)c7ccccc7)[nH]6)cc5)csc34)cc2[nH]1)C(C)C [Form A, methyl N-{(1R)-2-[(2S)-2-{5-[4-(6-{2-[(2S)-1-{(2S)-2-[(methoxycarbonyl)amino]-3-methylbutanoyl}pyrrolidin-2-yl]-3H-benzimidazol-5-yl}thieno[3,2-b]thiophen-3-yl)phenyl]-1H-imidazol-2-yl}pyrrolidin-1-yl]-2-oxo-1-phenylethyl}carbamate]
Stability 25° C./92% RH (XRPD after 11 days) ([1]; 25° C./92% RH, 11 days): Form A
Stability 40° C./75% RH (XRPD after 11 days) ([1]; 40° C./75% RH, 11 days): Form A
effect of GVS analysis and storage at elevated temperature and humidity on the crystals ([1]; eleven days, recrystallized 100 mg scale samples): remained as Form A
GVS weight uptake at 90% RH ([2]; 25° C., 90% RH): 1.16 wt %
XRPD post GVS / XRPD after GVS [2]: Form A

COC(=O)N[C@H](C(=O)N1CCC[C@H]1c1nc2ccc(-c3csc4c(-c5ccc(-c6cnc([C@@H]7CCCN7C(=O)[C@H](NC(=O)OC)c7ccccc7)[nH]6)cc5)csc34)cc2[nH]1)C(C)C [compound of Formula I, methyl N-{(1R)-2-[(2S)-2-{5-[4-(6-{2-[(2S)-1-{(2S)-2-[(methoxycarbonyl)amino]-3-methylbutanoyl}pyrrolidin-2-yl]-3H-benzimidazol-5-yl}thieno[3,2-b]thiophen-3-yl)phenyl]-1H-imidazol-2-yl}pyrrolidin-1-yl]-2-oxo-1-phenylethyl}carbamate]
bioavailability [3]: 4 to 8%
effect from addition of P-gp inhibitor cyclosporine A (P-gp): absence of effect
P-gp substrate (P-gp; deduced from BA/AB transport ratio and cyclosporine A addition): not a P-gp substrate
efflux ratio (P-gp; human, Caco-2): < 1
permeability (Caco-2 cell model): low permeability
half-life [4]: > 8 h
BCS classification ([5]; based on poor aqueous solubility and low Caco-2 permeability): BCS Class IV
solubility ([5]; poor aqueous solubility, basis of BCS classification): < 0.5 mg/mL
thermodynamic aqueous solubility, rank order [5]: HCl>H2SO4>tosylate=free base form

H2SO4
Stability 25° C./92% RH (XRPD after 7 days) ([1]; 25° C./92% RH): Amorphous
Stability 40° C./75% RH (XRPD after 7 days) ([1]; 40° C./75% RH): Amorphous
GVS wt uptake between 0-90% RH [2]: RH 25.5% wt
GVS wt uptake between 40-75% RH ([2]; 40-75% RH): 6.12% wt uptake
GVS wt uptake between 75-90% RH ([2]; 75-90% RH): RH 14.5% wt
XRPD post GVS / XRPD after GVS [2]: Amorphous

Tosylate
Stability 25° C./92% RH (XRPD after 7 days) ([1]; 25° C./92% RH): Amorphous
Stability 40° C./75% RH (XRPD after 7 days) ([1]; 40° C./75% RH): Amorphous
GVS wt uptake between 0-90% RH [2]: 9.5% wt uptake
XRPD post GVS / XRPD after GVS [2]: Amorphous
pH of the equilibrated suspension in the solubility determination ([5]; measured after equilibration at 25° C. for 24 hours): 1.52
Aqueous Solubility ([5]; scaled-up amorphous salts, final pH printed in the same cell): 0.00 mgmL^−1
thermodynamic aqueous solubility, rank order [5]: HCl>H2SO4>tosylate=free base form
